These results are taken from patent US20250206763A1, “ENPP1 INHIBITOR” (SHANGHAI QILU PHARMACEUTICAL RESEARCH AND DEVELOPMENT …, priority 2022, published 2025).

In this assay the target is T1, human ENPP1 (Homo sapiens, UniProt P22413).
T1 construct: purchased Biovendor AP-18-081; host or cells: HEK293
T1 sequence (P22413 1-925): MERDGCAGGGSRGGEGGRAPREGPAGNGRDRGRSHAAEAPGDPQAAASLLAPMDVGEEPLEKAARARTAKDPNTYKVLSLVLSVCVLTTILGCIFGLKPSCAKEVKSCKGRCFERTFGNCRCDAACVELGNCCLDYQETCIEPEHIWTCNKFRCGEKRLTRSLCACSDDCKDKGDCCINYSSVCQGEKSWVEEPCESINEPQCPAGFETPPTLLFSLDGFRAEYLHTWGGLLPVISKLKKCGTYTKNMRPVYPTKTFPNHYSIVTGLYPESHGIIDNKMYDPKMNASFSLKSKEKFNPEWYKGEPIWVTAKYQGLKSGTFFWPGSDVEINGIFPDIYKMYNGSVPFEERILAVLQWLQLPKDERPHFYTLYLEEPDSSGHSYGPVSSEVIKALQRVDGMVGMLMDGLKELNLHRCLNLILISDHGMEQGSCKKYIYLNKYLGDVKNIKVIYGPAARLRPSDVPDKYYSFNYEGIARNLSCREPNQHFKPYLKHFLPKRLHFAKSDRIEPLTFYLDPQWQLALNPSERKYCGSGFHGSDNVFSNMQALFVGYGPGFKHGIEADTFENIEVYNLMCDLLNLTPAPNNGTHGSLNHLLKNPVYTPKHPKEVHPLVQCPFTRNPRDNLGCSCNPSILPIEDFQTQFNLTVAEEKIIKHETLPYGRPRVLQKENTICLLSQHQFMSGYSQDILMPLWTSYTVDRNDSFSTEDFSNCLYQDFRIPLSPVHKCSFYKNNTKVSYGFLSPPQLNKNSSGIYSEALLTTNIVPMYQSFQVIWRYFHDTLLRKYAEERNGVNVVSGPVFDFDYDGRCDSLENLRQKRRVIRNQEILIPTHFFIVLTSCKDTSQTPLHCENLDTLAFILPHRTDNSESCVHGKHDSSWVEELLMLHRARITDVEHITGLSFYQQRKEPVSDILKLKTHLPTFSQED
Description: In vitro enzyme activity assay: human ENPP1 enzymatic assay (cGAMP), AMP-Glo. It counts as biochemical. Particulars: substrate cGAMP, AMP-Glo detection. As to the method:
AMP-Glo Assay Kit (PROMEGA, V5012), ENPP-1-IN-1 (MCE, HY-129490), white opaque 384-well plate (Perkin Elmer, 6008289), Mammalian (non-canonical) CDN, cyclic[g(2′,5′)pA(3′,5′)p](referred to as cGAMP hereinafter, Invivogen, tlrl-nacga23-5), ENPP1 Protein Human HEK293 (Biovendor, AP-18-081).
• 1) Preparing 1× reaction buffer (Tris buffer), 1× enzyme buffer, and 1× substrate buffer; • 2) diluting the compounds using Echo550 and supplementing with DMSO; • 3) pre-loading 2.5 μL of enzyme solution on a reaction plate (adding 2.5 μL of buffer instead as negative control) and incubating it at room temperature; • 4) adding 2.5 μL of substrate solution to the system and incubating it at room temperature; • 5) adding 5 μL of AMP-Glo solution that has been allowed to cooled down to room temperature, centrifuging and reacting at room temperature, • 6) adding 10 μL of AMP Detection solution at room temperature, centrifuging and reacting at room temperature; and • 7) reading the plate using EnVision.

Consider `C[S@@](=N)(=O)c1ccc(Cn2c(=O)[nH]c3cnc4c5c(ccc4c32)OCO5)cc1` (single isomer, unassigned) [Compound 43-P1], for which the IC50 was in the range of 10 to 50 nM.
To `C[S@](=N)(=O)c1ccc(Cn2c(=O)[nH]c3cnc4c5c(ccc4c32)OCO5)cc1` (single isomer, unassigned) [Compound 43-P2] belongs under 10 nM; to `O=c1[nH]c2cnc3c4c(ccc3c2n1Cc1c(F)cc(P(=O)(O)O)cc1F)OCO4` [Compound 2, (3,5-difluoro-4-((7-oxo-6,7-dihydro-8H-[1,3]dioxolo[4,5-h]imidazo[4,5-c]quinolin-8-yl)methyl)phenyl)phosphonic acid], under 10 nM.
`Cn1c(=O)n(Cc2ccc(P(=O)(O)O)c(F)c2)c2c3ccc4c(c3ncc21)OCO4` [Compound 3, (2-fluoro-4-((6-methyl-7-oxo-6,7-dihydro-8H-[1,3]dioxolo[4,5-h]imidazo[4,5-c]quinolin-8-yl)methyl)phenyl)phosphonic acid] displayed an IC50 of under 10 nM.
For `O=c1[nH]c2cnc3c4c(ccc3c2n1Cc1ccc(P(=O)(O)O)cc1F)OCO4` [Compound 4, (3-fluoro-4-((7-oxo-6,7-dihydro-8H-[1,3]dioxolo[4,5-h]imidazo[4,5-c]quinolin-8-yl)methyl)phenyl)phosphonic acid] the value was under 10 nM; for `CC(c1ccc(P(=O)(O)O)c(F)c1)n1c(=O)[nH]c2cnc3c4c(ccc3c21)OCO4` (stereo not drawn) [Compound 5-P1], under 10 nM; for `CC(c1ccc(P(=O)(O)O)c(F)c1)n1c(=O)[nH]c2cnc3c4c(ccc3c21)OCO4` (stereo not drawn) [Compound 5-P2], under 10 nM.
The compound `CCn1c(=O)n(Cc2ccc(P(=O)(O)O)c(F)c2)c2c3ccc4c(c3ncc21)OCO4` [Compound 6, (4-((6-ethyl-7-oxo-6,7-dihydro-8H-[1,3]dioxolo[4,5-h]imidazo[4,5-c]quinolin-8-yl)methyl)-2-fluorophenyl)phosphonic acid] registered an IC50 of under 10 nM.
Compound `O=c1n(CC(F)F)c2cnc3c4c(ccc3c2n1Cc1ccc(P(=O)(O)O)c(F)c1)OCO4` [Compound 7] had an IC50 of under 10 nM.
Regarding `O=c1[nH]c2cnc3c4c(ccc3c2n1Cc1ccc(P(=O)(O)O)c2ccccc12)OCO4` [Compound 8], the IC50 lay within 10 to 50 nM.
To `O=c1[nH]c2cnc3c4c(ccc3c2n1Cc1ccc(P(=O)(O)O)c(F)c1F)OCO4` [Compound 9] belongs under 10 nM; to `CC(C)n1c(=O)n(Cc2ccc(P(=O)(O)O)c(F)c2)c2c3ccc4c(c3ncc21)OCO4` [Compound 10], under 10 nM; to `O=c1n(Cc2ccc(P(=O)(O)O)c(F)c2)c2c3ccc4c(c3ncc2n1C1CC1)OCO4` [Compound 11], under 10 nM.
`O=c1[nH]c2cnc3c4c(ccc3c2n1Cc1c(F)cc(P(=O)(O)O)c(F)c1F)OCO4` [Compound 12] gave an IC50 of under 10 nM.
For `O=c1[nH]c2cnc3c4c(ccc3c2n1Cc1cc(F)c(P(=O)(O)O)cc1Cl)OCO4` [Compound 13] the value was under 10 nM; for `Cc1cc(P(=O)(O)O)c(F)cc1Cn1c(=O)[nH]c2cnc3c4c(ccc3c21)OCO4` [Compound 14], under 10 nM; for `O=c1[nH]c2cnc3c4c(ccc3c2n1Cc1ccc(P(=O)(O)O)c(Cl)c1)OCO4` [Compound 15], under 10 nM.
For the compound `O=c1[nH]c2cnc3c4c(ccc3c2n1Cc1ccc(P(=O)(O)O)c(Br)c1)OCO4` [Compound 16], the IC50 is under 10 nM.
Compound `O=c1[nH]c2cnc3c4c(ccc3c2n1Cc1cc(F)c(P(=O)(O)O)cc1F)OCO4` [Compound 17] showed an IC50 of under 10 nM.
In turn, `CC(C)Cn1c(=O)n(Cc2ccc(P(=O)(O)O)c(F)c2)c2c3ccc4c(c3ncc21)OCO4` [Compound 18] showed a concentration for half-maximal inhibition (IC50) of under 10 nM.
As for `O=c1n(CC2CCC2)c2cnc3c4c(ccc3c2n1Cc1ccc(P(=O)(O)O)c(F)c1)OCO4` [Compound 19], the IC50 was under 10 nM.
For `O=c1n(CC2CCCC2)c2cnc3c4c(ccc3c2n1Cc1ccc(P(=O)(O)O)c(F)c1)OCO4` [Compound 20] the value was under 10 nM; for `O=c1n(CC2CCC(F)(F)CC2)c2cnc3c4c(ccc3c2n1Cc1ccc(P(=O)(O)O)c(F)c1)OCO4` [Compound 21], under 10 nM; for `CC(C)(C)Cn1c(=O)n(Cc2ccc(P(=O)(O)O)c(F)c2)c2c3ccc4c(c3ncc21)OCO4` [Compound 22], under 10 nM.
For `O=c1n(CC(F)(F)F)c2cnc3c4c(ccc3c2n1Cc1ccc(P(=O)(O)O)c(F)c1)OCO4` [Compound 23] the value was under 10 nM; for `O=c1n(CCC(F)(F)F)c2cnc3c4c(ccc3c2n1Cc1ccc(P(=O)(O)O)c(F)c1)OCO4` [Compound 24], under 10 nM.
On to `O=c1n(CCC2CCOCC2)c2cnc3c4c(ccc3c2n1Cc1ccc(P(=O)(O)O)c(F)c1)OCO4` [Compound 25], for which the IC50 was under 10 nM.
Consider `O=c1n(CCCF)c2cnc3c4c(ccc3c2n1Cc1ccc(P(=O)(O)O)c(F)c1)OCO4` [Compound 26], for which the IC50 was under 10 nM.
Consider `O=c1n(Cc2ccc(P(=O)(O)O)c(F)c2)c2c3ccc4c(c3ncc2n1C1CCCC1)OCO4` [Compound 27], for which the IC50 is under 10 nM.
`O=c1n(Cc2ccc(P(=O)(O)O)c(F)c2)c2c3ccc4c(c3ncc2n1C1CCOCC1)OCO4` [Compound 28] displayed an IC50 of under 10 nM.
Consider `O=c1n(CCCOC2CCOCC2)c2cnc3c4c(ccc3c2n1Cc1ccc(P(=O)(O)O)c(F)c1)OCO4` [Compound 29], for which the IC50 was under 10 nM.
The compound `CC(C)CCn1c(=O)n(Cc2ccc(P(=O)(O)O)c(F)c2)c2c3ccc4c(c3ncc21)OCO4` [Compound 30] displayed an IC50 of under 10 nM.
Compound `CS(=O)(=O)CCn1c(=O)n(Cc2ccc(P(=O)(O)O)c(F)c2)c2c3ccc4c(c3ncc21)OCO4` [Compound 31] yielded a half-maximal inhibitory concentration (IC50) of under 10 nM.
In the case of `O=c1n(CCCN2CCOCC2)c2cnc3c4c(ccc3c2n1Cc1ccc(P(=O)(O)O)c(F)c1)OCO4` [Compound 32], the IC50 was under 10 nM.
Compound `CN(C)CCn1c(=O)n(Cc2ccc(P(=O)(O)O)c(F)c2)c2c3ccc4c(c3ncc21)OCO4` [Compound 33] gave an IC50 of under 10 nM.
Compound `CN(C)CCCn1c(=O)n(Cc2ccc(P(=O)(O)O)c(F)c2)c2c3ccc4c(c3ncc21)OCO4` [Compound 34] showed an IC50 of under 10 nM.
The compound `NS(=O)(=O)c1cc(F)c(Cn2c(=O)[nH]c3cnc4c5c(ccc4c32)OCO5)c(F)c1` [Compound 35] registered an IC50 of under 10 nM.
The compound `NS(=O)(=O)c1ccc(Cn2c(=O)[nH]c3cnc4c5c(ccc4c32)OCO5)cc1` [Compound 36] displayed an IC50 of under 10 nM.
In turn, `NS(=O)(=O)c1ccc(Cn2c(=O)[nH]c3cnc4c5c(ccc4c32)OCO5)cc1F` [Compound 37] gave an IC50 of under 10 nM.
Take `NS(=O)(=O)c1ccc(Cn2c(=O)[nH]c3cnc4c5c(ccc4c32)OCO5)c(F)c1F` [Compound 38]: the IC50 was under 10 nM.
To `NS(=O)(=O)c1ccc(Cn2c(=O)[nH]c3cnc4c5c(ccc4c32)OCO5)c(F)c1` [Compound 39] belongs under 10 nM; to `NS(=O)(=O)c1ccc(Cn2c(=O)[nH]c3cnc4c5c(ccc4c32)OCO5)nc1` [Compound 40], under 10 nM; to `CCn1c(=O)n(Cc2c(F)cc(S(N)(=O)=O)cc2F)c2c3ccc4c(c3ncc21)OCO4` [Compound 41], under 10 nM.
`CS(=N)(=O)c1ccc(Cn2c(=O)[nH]c3cnc4c5c(ccc4c32)OCO5)cc1F` (stereo not drawn) [Compound 42] came in with an IC50 of under 10 nM.
`Cn1c(=O)n(Cc2ccc(S(C)(=N)=O)cc2)c2c3ccc4c(c3ncc21)OCO4` (stereo not drawn) [Compound 44]: the IC50 was under 10 nM.

Usually IC50 stands for the concentration at which inhibition is half-maximal. High values mean weaker potency, low ones greater potency.
